The results in this text go back to patent publication US4496551A (priority 1983, dated 1985).

In the first test the test system is Pyricularia oryzae. The test can be described thus: whole plant or invertebrate. The class given is in vivo. Particulars: 168 h, read-out: % Control of Rice Blast.
`C[Si](Cn1ccnc1)(c1ccc(-c2ccccc2)cc1)c1ccc(-c2ccccc2)cc1` [bis(1,1'-Biphenyl-4-yl)(1H-imidazol-1-ylmethyl)methylsilane]: the pest or weed control at 100 ppm worked out at 0%.

As to `C[Si](Cn1ccnc1)(c1ccc(Cl)cc1Cl)c1ccc(Cl)cc1Cl` [bis(2,4-Dichlorophenyl)(1H-imidazol-1-ylmethyl)methylsilane], the pest or weed control at 100 ppm came to 0%.

`O[Si](Cn1ccnc1)(c1ccc(F)cc1)c1ccc(F)cc1` [bis(4-Fluorophenyl)hydroxy(1H-imidazol-1-ylmethyl)silane]: the pest or weed control at 100 ppm was determined as 60%.

For the compound `Clc1ccc([Si](Cn2ccnc2)(c2ccc(Cl)cc2)c2ccc(Cl)cc2)cc1` [tris(4-Chlorophenyl)(1H-imidazol-1-ylmethyl)silane], the pest or weed control at 100 ppm was found to be 0%.

As for `Fc1ccc([Si](Cn2ccnc2)(c2ccc(F)cc2)c2ccc(F)cc2)cc1` [tris(4-Fluorophenyl)(1H-imidazol-1-ylmethyl)silane], the pest or weed control at 100 ppm turned out to be 0%.

For the next test, the system named is Helminthosporium maydis. The test can be described thus: southern corn leaf blight control on corn seedlings. As to conditions: Bipolaris maydis, 168 h. The class given is in vivo. The protocol:
Compounds of the previous example were again dissolved in acetone in an amount equal to 6% of the final volume and then suspended at a concentration of 100 ppm in purified water containing 250 ppm of the surfactant TREM 014 (polyhydric alcohol esters). This suspension was sprayed to the point of run-off on corn seedlings. The following day, the plants were inoculated with a spore suspension of Helminthosporium maydis, causal agent of southern corn leaf blight, and incubated in a saturated humidity chamber at 20° for 24 hours and then in a growth room for an additional 7 days, when disease ratings were made. Treated plants from successful treatments had few lesions while the untreated plants had numerous lesions on each leaf.
As for `C[Si](Cn1ccnc1)(c1ccc(-c2ccccc2)cc1)c1ccc(-c2ccccc2)cc1` [bis(1,1'-Biphenyl-4-yl)(1H-imidazol-1-ylmethyl)methylsilane], the pest or weed control at 100 ppm was found to be 0%.

For `C[Si](Cn1ccnc1)(c1ccc(Cl)cc1Cl)c1ccc(Cl)cc1Cl` [bis(2,4-Dichlorophenyl)(1H-imidazol-1-ylmethyl)methylsilane], the pest or weed control at 100 ppm stood at 80%.

`O[Si](Cn1ccnc1)(c1ccc(F)cc1)c1ccc(F)cc1` [bis(4-Fluorophenyl)hydroxy(1H-imidazol-1-ylmethyl)silane] registered a pest or weed control at 100 ppm of 0%.

Turning to `Clc1ccc([Si](Cn2ccnc2)(c2ccc(Cl)cc2)c2ccc(Cl)cc2)cc1` [tris(4-Chlorophenyl)(1H-imidazol-1-ylmethyl)silane], the pest or weed control at 100 ppm worked out at 0%.

Turning to `Fc1ccc([Si](Cn2ccnc2)(c2ccc(F)cc2)c2ccc(F)cc2)cc1` [tris(4-Fluorophenyl)(1H-imidazol-1-ylmethyl)silane], the pest or weed control at 100 ppm was 0%.

For another test, the system named is Cercospora arachidicola. As to the kind of experiment: peanut early leafspot control on peanut seedlings. In kind it is in vivo. Particulars: Mycosphaerella arachidis, 336 h. The method, then:
Compounds of the previous examples were again dissolved in acetone in an amount equal to 6% of the final volume and then suspended at a concentration of 100 ppm in purified water containing 250 ppm of the surfactant TREM 014 (polyhydric alcohol esters). This suspension was sprayed to the point of run-off on peanut seedlings. The following day, the plants were inoculated with a spore suspension of Cercospora arachidicola, causal agent of peanut early leafspot, and incubated in a saturated humidity chamber at 27° for 24 hours and then in a growth room for an additional 14 days, when disease ratings were made. Treated plants from successful treatments had few or no leafspots while the untreated plants had numerous leafspots on each leaf.
For `C[Si](Cn1ccnc1)(c1ccc(-c2ccccc2)cc1)c1ccc(-c2ccccc2)cc1` [bis(1,1'-Biphenyl-4-yl)(1H-imidazol-1-ylmethyl)methylsilane], the pest or weed control at 100 ppm worked out at 60%.

With `C[Si](Cn1ccnc1)(c1ccc(Cl)cc1Cl)c1ccc(Cl)cc1Cl` [bis(2,4-Dichlorophenyl)(1H-imidazol-1-ylmethyl)methylsilane], the pest or weed control at 100 ppm was 90%.

`O[Si](Cn1ccnc1)(c1ccc(F)cc1)c1ccc(F)cc1` [bis(4-Fluorophenyl)hydroxy(1H-imidazol-1-ylmethyl)silane] gave a pest or weed control at 100 ppm of 50%.

Take `Clc1ccc([Si](Cn2ccnc2)(c2ccc(Cl)cc2)c2ccc(Cl)cc2)cc1` [tris(4-Chlorophenyl)(1H-imidazol-1-ylmethyl)silane]: the pest or weed control at 100 ppm is 0%.

Turning to `Fc1ccc([Si](Cn2ccnc2)(c2ccc(F)cc2)c2ccc(F)cc2)cc1` [tris(4-Fluorophenyl)(1H-imidazol-1-ylmethyl)silane], the pest or weed control at 100 ppm came out at 0%.

A further test relates to Venturia inaequalis. The test can be described thus: apple scab control on apple seedlings. The class given is in vivo. Particulars: Venturia inaequalis; 100 ppm. The protocol:
Compounds of this invention were dissolved in acetone in an amount equal to 6% of the final volume and then suspended at a concentration of 100 ppm in purified water containing 250 ppm of the surfactant TREM 014 (polyhydric alcohol esters). This suspension was sprayed to the point of run-off on apple seedlings. The following day, the plants were inoculated with a spore suspension of the fungus Venturia inaequalis, causal agent of apple scab, and incubated in a saturated humidity chamber at 20° for 24 hours and then in a growth room for an additional 10-12 days. Treated plants from successful treatments had few or no apple scab lesions when compared to untreated plants which were covered with scab lesions.
With `C[Si](Cn1ccnc1)(c1ccc(-c2ccccc2)cc1)c1ccc(-c2ccccc2)cc1` [bis(1,1'-Biphenyl-4-yl)(1H-imidazol-1-ylmethyl)methylsilane], the pest or weed control at 100 ppm was determined as 50%.

`C[Si](Cn1ccnc1)(c1ccc(Cl)cc1Cl)c1ccc(Cl)cc1Cl` [bis(2,4-Dichlorophenyl)(1H-imidazol-1-ylmethyl)methylsilane]: the pest or weed control at 100 ppm worked out at 40%.

Compound `O[Si](Cn1ccnc1)(c1ccc(F)cc1)c1ccc(F)cc1` [bis(4-Fluorophenyl)hydroxy(1H-imidazol-1-ylmethyl)silane] showed a pest or weed control at 100 ppm of 0%.

For `Clc1ccc([Si](Cn2ccnc2)(c2ccc(Cl)cc2)c2ccc(Cl)cc2)cc1` [tris(4-Chlorophenyl)(1H-imidazol-1-ylmethyl)silane], the pest or weed control at 100 ppm was 0%.

With `Fc1ccc([Si](Cn2ccnc2)(c2ccc(F)cc2)c2ccc(F)cc2)cc1` [tris(4-Fluorophenyl)(1H-imidazol-1-ylmethyl)silane], the pest or weed control at 100 ppm is 0%.

In another test the test system is Puccinia recondita var. tritici. As to the kind of experiment: wheat leaf rust control on wheat seedlings. The class given is in vivo. As to conditions: 100 ppm, sprayed day before inoculation. The method, then: Compounds of this invention were dissolved in acetone in an amount equal to 6% of the final volume and then suspended at a concentration of 100 ppm in purified water containing 250 ppm of the surfactant TREM 014 (polyhydric alcohol esters). This suspension was sprayed to the point of run-off on wheat seedlings. The following day, the plants were inoculated with a spore suspension of Puccinia recondita var. tritici, causal agent of wheat leaf rust, and incubated in a saturated humidity chamber at 20° for 24 hours and then in a growth room for an additional 7 days, when disease ratings were made. Treated plants from successful treatments had few or no rust pustules while the untreated plants had numerous rust pustules on each leaf.
For `C[Si](Cn1ccnc1)(c1ccc(-c2ccccc2)cc1)c1ccc(-c2ccccc2)cc1` [bis(1,1'-Biphenyl-4-yl)(1H-imidazol-1-ylmethyl)methylsilane], the pest or weed control at 100 ppm came to 0%.

As to `C[Si](Cn1ccnc1)(c1ccc(Cl)cc1Cl)c1ccc(Cl)cc1Cl` [bis(2,4-Dichlorophenyl)(1H-imidazol-1-ylmethyl)methylsilane], the pest or weed control at 100 ppm worked out at 100%.

With `O[Si](Cn1ccnc1)(c1ccc(F)cc1)c1ccc(F)cc1` [bis(4-Fluorophenyl)hydroxy(1H-imidazol-1-ylmethyl)silane], the pest or weed control at 100 ppm was found to be 100%.

`Clc1ccc([Si](Cn2ccnc2)(c2ccc(Cl)cc2)c2ccc(Cl)cc2)cc1` [tris(4-Chlorophenyl)(1H-imidazol-1-ylmethyl)silane] came in with a pest or weed control at 100 ppm of 0%.

The compound `Fc1ccc([Si](Cn2ccnc2)(c2ccc(F)cc2)c2ccc(F)cc2)cc1` [tris(4-Fluorophenyl)(1H-imidazol-1-ylmethyl)silane] had a pest or weed control at 100 ppm of 80%.

For a further test, the system named is Erysiphe cichoracearum. As to the kind of experiment: cucumber powdery mildew control on cucumber seedlings. Particulars: Golovinomyces cichoracearum, 168 h, 7 days. The class given is in vivo. The method, then: Compounds of the previous examples were again dissolved in acetone in an amount equal to 6% of the final volume and then suspended at a concentration of 100 ppm in purified water containing 250 ppm of the surfactant TREM 014 (polyhydric alcohol esters). This suspension was sprayed to the point of run-off on cucumber seedlings. The following day, the plants were inoculated with a spore suspension of the fungus Erysiphe cichoracearum, causal agent of cucumber powdery mildew, and incubated in a growth room for 7 days. Disease ratings were then made. Treated plants from successful treatments had little or no powdery mildew in contrast to untreated plants which were covered with powdery mildew.
Take `C[Si](Cn1ccnc1)(c1ccc(-c2ccccc2)cc1)c1ccc(-c2ccccc2)cc1` [bis(1,1'-Biphenyl-4-yl)(1H-imidazol-1-ylmethyl)methylsilane]: the pest or weed control at 100 ppm amounted to 0%.

Take `C[Si](Cn1ccnc1)(c1ccc(Cl)cc1Cl)c1ccc(Cl)cc1Cl` [bis(2,4-Dichlorophenyl)(1H-imidazol-1-ylmethyl)methylsilane]: the pest or weed control at 100 ppm came to 100%.

As for `O[Si](Cn1ccnc1)(c1ccc(F)cc1)c1ccc(F)cc1` [bis(4-Fluorophenyl)hydroxy(1H-imidazol-1-ylmethyl)silane], the pest or weed control at 100 ppm came out at 100%.

The compound `Clc1ccc([Si](Cn2ccnc2)(c2ccc(Cl)cc2)c2ccc(Cl)cc2)cc1` [tris(4-Chlorophenyl)(1H-imidazol-1-ylmethyl)silane] showed a pest or weed control at 100 ppm of 100%.

With `Fc1ccc([Si](Cn2ccnc2)(c2ccc(F)cc2)c2ccc(F)cc2)cc1` [tris(4-Fluorophenyl)(1H-imidazol-1-ylmethyl)silane], the pest or weed control at 100 ppm came out at 100%.

Another test concerns Rhizoctonia solani. The test can be described thus: rice sheath blight control on rice seedlings. Particulars: Rhizoctonia solani, 168 h, 7 days. The class given is in vivo. The protocol:
Several compounds of the previous examples were again dissolved in acetone in an amount equal to 6% of the final volume and then suspended at a concentration of 100 ppm in purified water containing 250 ppm of the surfactant TREM 014 (polyhydric alcohol esters). This suspension was sprayed to the point of run-off on rice seedlings. The following day, the plants were inoculated with a mixture of bran and the mycelium of Rhizoctonia solani, causal agent of sheath blight of rice, and incubated in a growth room for 7 days. Disease ratings were then made. Treated plants from successful treatments had little sheath blight in contrast to untreated plants which were covered with sheath blight.
The compound `C[Si](Cn1ccnc1)(c1ccc(-c2ccccc2)cc1)c1ccc(-c2ccccc2)cc1` [bis(1,1'-Biphenyl-4-yl)(1H-imidazol-1-ylmethyl)methylsilane] showed a pest or weed control at 100 ppm of 0%.

As to `C[Si](Cn1ccnc1)(c1ccc(Cl)cc1Cl)c1ccc(Cl)cc1Cl` [bis(2,4-Dichlorophenyl)(1H-imidazol-1-ylmethyl)methylsilane], the pest or weed control at 100 ppm is 80%.

In turn, `O[Si](Cn1ccnc1)(c1ccc(F)cc1)c1ccc(F)cc1` [bis(4-Fluorophenyl)hydroxy(1H-imidazol-1-ylmethyl)silane] came in with a pest or weed control at 100 ppm of 90%.

Compound `Clc1ccc([Si](Cn2ccnc2)(c2ccc(Cl)cc2)c2ccc(Cl)cc2)cc1` [tris(4-Chlorophenyl)(1H-imidazol-1-ylmethyl)silane] displayed a pest or weed control at 100 ppm of 0%.

As for `Fc1ccc([Si](Cn2ccnc2)(c2ccc(F)cc2)c2ccc(F)cc2)cc1` [tris(4-Fluorophenyl)(1H-imidazol-1-ylmethyl)silane], the pest or weed control at 100 ppm was found to be 0%.

In the next test the test system is Phytophthora infestans. The test can be described thus: whole plant or invertebrate. The class given is in vivo. As to conditions: Phytophthora infestans, in Solanum lycopersicum, 168 h, read-out: % Control of Tomato Late Blight.
As to `C[Si](Cn1ccnc1)(c1ccc(-c2ccccc2)cc1)c1ccc(-c2ccccc2)cc1` [bis(1,1'-Biphenyl-4-yl)(1H-imidazol-1-ylmethyl)methylsilane], the pest or weed control at 100 ppm was 0%.

Consider `C[Si](Cn1ccnc1)(c1ccc(Cl)cc1Cl)c1ccc(Cl)cc1Cl` [bis(2,4-Dichlorophenyl)(1H-imidazol-1-ylmethyl)methylsilane], for which the pest or weed control at 100 ppm is 0%.

Regarding `O[Si](Cn1ccnc1)(c1ccc(F)cc1)c1ccc(F)cc1` [bis(4-Fluorophenyl)hydroxy(1H-imidazol-1-ylmethyl)silane], the pest or weed control at 100 ppm was 0%.

Take `Clc1ccc([Si](Cn2ccnc2)(c2ccc(Cl)cc2)c2ccc(Cl)cc2)cc1` [tris(4-Chlorophenyl)(1H-imidazol-1-ylmethyl)silane]: the pest or weed control at 100 ppm amounted to 0%.

For the compound `Fc1ccc([Si](Cn2ccnc2)(c2ccc(F)cc2)c2ccc(F)cc2)cc1` [tris(4-Fluorophenyl)(1H-imidazol-1-ylmethyl)silane], the pest or weed control at 100 ppm came to 0%.
